Reference: patent US5670538A, “Use of prodelphinidins for obtaining medicaments intended for the treatment of arthrosis” (Laboratoires Dolisos, priority 1992, dated 1997)

Tests used:
[1] = tested on: human articular chondrocytes; assay: Radioimmunoassay of prostaglandins E2 (PGE2) produced in tridimensional culture of human chondrocytes; assay type: cell-based; settings: for Amounts of PGE2 in the culture media taken on the 4th and 8th day: 1% Ultroser G, incubation of the 4th to 8th day; for PGE2 in the culture medium: foetal calf serum
Text: The model used for testing the proanthocyanidols, namely the tridimensional culture of human chondrocytes allows chondrorepair to be quantified by the production of matrix substances: type II collagen, proteoglycans, and chondroresorption by the reduction in the levels of prostaglandin E2 and of OH° and O°2 type free radicals produced.
1. Tridimensional culture of human chondrocytes
The technique used has been described in detail (Bassleer et al., 1986).
Briefly, human articular chondrocytes are cultivated in DMEM (Dulbecco's Modification of Eagle's Medium--ICN--Gand, Belgium) with either Ultroser G 1% (GIBCO, Gand, Belgium) or 10% of foetal calf serum (ICN--Gand--Belgium), and 50 μg of ascorbic acid/ml added to it. The cartilage originates from the apparently normal zone of heads of human femur suffering from arthrosis, immediately after an operation carried out to insert a total hip prosthesis; it can also originate from the head of a healthy femur, but which has undergone a traumatism and has had to be replaced. This cartilage is then digested by clostridial collagenase 1 mg/ml (Boehringer-Mannheim, Germany) in a buffer (NaCl 120 mM, CaCl2 1 mM, KCl 5 mM, KH2 PO4 1 mM, NaHCO3 25 mM, glucose 2 mM and Hepes 30 mM, pH 7.4) for 24 hours. After 6 successive washings and centrifugations, the chondrocytes, isolated from their matrix, are cultured in flasks (10^6 cells/2 ml of culture medium) placed on a gyrator (10 rpm). The cultures are kept at 37° C. in an atmosphere of air 95%-CO2 5% (Bassleer et al., 1986). Cultivated under these conditions, after 4 to 5 days the chondrocytes form a tridimensional cluster in each flask. These clusters, which at first have a flocculent appearance, then tend to condense during the culture. After two weeks, their diameter is, in general, from 1 to 2 mm.
The fresh weight of the clusters increases with the duration of the culture, above all during the few first days.
4. Radioimmunoassay of prostaglandins E2 (PGE2)
The radioimmunoassay of PGE2s is carried out according to the method described by Serteyn et al., 1988. The PGE2 is obtained from Sigma (Aldrich-Chemie, Steinheim, Germany) and the ^3 H-PGE2 from NEN (Du Pont de Nemours, Brussels, Belgium). 0.1 ml of incubation buffer (10 mM Tris-HCl […], 0.5% sodium azide (W/V), 1% gelatine (W/V), pH 7.4), 0.1 ml of ^3 H-PGE2 (diluted so as to obtain 10,000 cpm/0.1 ml) and 0.1 ml of antiserum (1/4000) are added successively to 0.1 ml of the sample to be assayed or the reference antigen (0-500 pg). After incubation for 48 hours at 4° C., the free antigen is separated from the antigens bound to the antibodies by a precipitation with carbon-DEXTRAN T70 (0.5 ml per tube). The carbon-Dextran solution contains 5 g/l of neutral carbon, 500 mg of Dextran 70/l. After centrifugation (20 minutes, 3000 rpm, 4° C.), the radioactivity present in the supernatant is measured with a beta counter (Beckman) using liquid scintillation. The sensitivity of the assay is 20 pg/ml.
The accuracy of the method is 5%. The coefficients of the intra- and inter assay variation are 6% and 10% respectively. There is no cross reaction between this anti PGE2 antiserum and other prostanoids (Thromboxane B2, G-keto-PGF1-alpha, PGF2, PGA2), nor with the fatty acids such as arachidonic acid, oleic acid or also linoleic acid.
The results are expressed in quantities of PG, coll. II or PGE2 measured in the culture medium (CM) per μg of DNA. The cumulative measurements are obtained by adding the quantities assayed in the CMs to each renewal of the CM, for successive periods: 0 to 4, 4 to 8, 8 to 12 days of culture. The total production of PG is calculated by adding the cumulative quantities measured in the CMs to those measured in the corresponding clusters. The mean and the standard deviation (m±s.d) are calculated. Comparison of the mean values is carried out using the Mann-Whitney U statistical test. […]

[2] = tested on: polymorphonuclear cells (PMNs); assay: Production of the superoxide anion by the polymorphonuclear cells (PMNs), reduction of ferricytochrome C; assay type: cell-based; settings: 0.032 mM; phorbol myristate acetate; no conclusion possible on superoxide inhibition
Method: 10. Production of the superoxide anion (O°^2) by the polymorphonuclear cells (PMNs).
This is measured with a double beam spectrophotometer which allows the reduction of ferricytochrome C by O°2 tc be monitored. The incubation medium (2.5 ml) is constituted by PBS buffer containing glucose (7.5 mM), ferricytochrome C (0.956 mM), CaCl2 (2.3 mM), MgCl2 (1.1 mM), 7.5.10^6 of cells and the substance to be tested at a concentration of 0.032 mM. The reaction is triggered by adding phorbol myristate acetate at a final concentration of 0.012 mM and the reduction of the cytochrome C is monitored at 550 nm for 10 minutes. The reference cell contains the same material as that described above with an additional 48 μg of superoxide dismutase (SOD)/ml of medium.

[3] = Antilipoperoxidizing activity (gamma irradiation, linoleic acid substrate, pentane); assay type: biochemical; settings: for % inhibition of pentane release from linoleic acid (lipid peroxidation): Substrate: Linoleic acid, relative to the controls; for Production of free radicals from linoleic acid, effect in words: Table 23
Method: 9. Antilipoperoxidizing activity
Similar to the preceding anti-radical method but where the KMB is replaced by linoleic acid (C18: 2), the gamma radiation releases pentane which is analyzed. The height of the pentane peak is proportional to the quantity free of radicals formed in the medium.

[4] = Production of OH° hydroxyl radicals (gamma irradiation, KMB substrate, ethylene by gas chromatography); assay type: biochemical; settings: for % inhibition of the production of hydroxyl radicals: Substrate: KMB, relative to the controls; for Production of free radicals from KMB, effect in words: Table 22
Method: 8. Production of OH° hydroxyl radicals
The products are dissolved in 10 ml flasks at the required concentration in phosphate buffer: 6.6.10^-2 M, pH 7.4 in the presence of alpha keto methiolbutyric acid (10^-3 M: KMB). After the flasks have been hermetically sealed, the samples are irradiated with gamma rays provided by a ^137 Cs source.
The OH° radicals produced by the gamma radiation react with the KMB to produce the ethylene detected by a gas chromatograph. The height of the ethylene peak is proportional to the quantity of free radicals formed in the medium (Weis et al., 1978).

ferricytochrome C = assay: Control experiments: direct reduction of ferricytochrome C by the product itself; assay type: biochemical; settings: effect not quantifiable
Text: This effect not being quantifiable, no conclusion can consequently be drawn on a possible inhibiting effect of these products on the production of the superoxide anion by the activated PMNs.

Compound | Amounts of PGE2 in the culture media taken on the 4th and 8th day ([1]; 1 μg/ml) | Amounts of PGE2 in the culture media taken on the 4th and 8th day ([1]; 10 μg/ml) | Amounts of PGE2 in the culture media taken on the 4th and 8th day ([1]; 100 μg/ml) | PGE2 in the culture medium ([1]; 0-4 days, 10 μg/ml) | PGE2 in the culture medium ([1]; 0-4 days, 100 μg/ml) | PGE2 in the culture medium ([1]; 4-8 days, 10 μg/ml) | PGE2 in the culture medium ([1]; 4-8 days, 100 μg/ml) | Reduction of ferricytochrome C by PMNs [2] | % inhibition of pentane release from linoleic acid (lipid peroxidation) ([3]; 10^-3 M) | % inhibition of pentane release from linoleic acid (lipid peroxidation) ([3]; 10^-4 M) | % inhibition of pentane release from linoleic acid (lipid peroxidation) ([3]; 10^-5 M) | Production of free radicals from linoleic acid, effect in words [3] | % inhibition of the production of hydroxyl radicals ([4]; 10^-3 M) | % inhibition of the production of hydroxyl radicals ([4]; 10^-4 M) | % inhibition of the production of hydroxyl radicals ([4]; 10^-5 M) | Production of free radicals from KMB, effect in words [4] | Direct reduction of ferricytochrome C (ferricytochrome C)
Oc1cc(O)c2c(c1)O[C@H](c1cc(O)c(O)c(O)c1)[C@@H](O)[C@@H]2c1c(O)cc(O)c2c1O[C@H](c1cc(O)c(O)c(O)c1)[C@H](O)C2 [Substance Ia, GC-(4 alpha→8) EGC] | 91.5 ± 9 pg/μg of DNA | 44 ± 0.6 pg/μg of DNA | 25 ± 13 pg/μg of DNA | 312 ± 15 pg/μg DNA/96 H | 143 ± 25 pg/μg DNA/96 H | 27 ± 2.5 pg/μg DNA/96 H | 25 ± 3.5 pg/μg DNA/96 H | strongly reduced | 94% | 42% | 0% | significantly inhibits | 78% | 41% | 22% | significantly inhibits | powerful reducers of ferricytochrome C
Oc1cc(O)c2c(c1)O[C@H](c1cc(O)c(O)c(O)c1)[C@@H](O)[C@@H]2c1c(O)cc(O)c2c1O[C@H](c1cc(O)c(O)c(O)c1)[C@@H](O)C2 [Substance Ib, GC-(4 alpha→8) GC] | 129 ± 19 pg/μg of DNA | 76 ± 14 pg/μg of DNA | 48 ± 15 pg/μg of DNA | 130 ± 21 pg/μg DNA/96 H | 121 ± 16 pg/μg DNA/96 H | 30 ± 1.7 pg/μg DNA/96 H | 25 ± 1 pg/μg DNA/96 H | strongly reduced | 93% | 45% | 0% | significantly inhibits | 80% | 46% | 25% | significantly inhibits | powerful reducers of ferricytochrome C
Oc1cc(O)c2c(c1)O[C@H](c1cc(O)c(O)c(O)c1)[C@@H](O)[C@@H]2c1c(O)cc(O)c2c1O[C@H](c1cc(O)c(O)c(O)c1)[C@@H](O)[C@@H]2c1c(O)cc(O)c2c1O[C@H](c1cc(O)c(O)c(O)c1)[C@@H](O)C2 [Substance Ic, GC-(4 alpha→8) GC-(4 a→8)-GC] | 101 ± 7 pg/μg of DNA | 81 ± 12 pg/μg of DNA | 39 ± 10 pg/μg of DNA | 160 ± 17 pg/μg DNA/96 H | 153 ± 15 pg/μg DNA/96 H | 35.5 ± 2.1 pg/μg DNA/96 H | 29 ± 3.5 pg/μg DNA/96 H |  | 91% | 40% | 0% | significantly inhibits | 74% | 39% | 20% | significantly inhibits | powerful reducers of ferricytochrome C
